Measurements published in patent US10761088B2, “Method for identifying histone tail proteolysis” (University of Southern California, priority 2016, dated 2020).
“Also recorded” adds a separate entry of the source.

Tests used:
[1] = system: recombinant H3 (rH3); experiment: In vitro H3NT cleavage assay using recombinant proteases; assay type: biochemical; settings: recombinant MMP-9, USP14, USP39 and DIM1 tested (FIG. 1G)
Source text: (§1) To identify the protease responsible for H3NT cleavage observed in preosteoclasts, nuclear extracts from 3-day OCP-induced cells were fractionated by a series of chromatography steps (FIG. 1C). An in vitro H3NT cleavage assay was developed using a recombinant H3 (rH3) substrate and Western blot analysis with the H3CT antibody to track and isolate nuclear fractions containing H3NT protease activity. […] These fractions were combined and fractionated on a Q-sepharose column where, again, H3NT protease activity was largely restricted to two sequential fractions, BR100 and BR200. The fractions were combined for glycerol gradient sedimentation resulting in the final purification of fractions (#3-5) containing H3NT protease activity. […]
(§2) His-tagged proteins were generated in Rosetta 2 (DE3) pLysS E. coli (Novagen) and purified as previously described (Kim et al. 2008). […] Peptides were incubated with rMMP-9 at seven different concentrations (0, 25, 50, 100, 150, 200, and 250 µM) in cleavage buffer, the reactions stopped by adding 20 mM o-phenanthroline (Sigma) and peptide hydrolysis was measured by adding 5 mM fluorescamine followed by detection at λex 365 nm and λem 450 nm using a Plate Chameleon spectrofluorometer (Hidex). Kinetic parameters were determined by Michaelis-Menten analysis. […]

[2] = system: H3NT proteolysis in OCP-induced cells; experiment: H3NT cleavage in OCP-induced cells (Western blot of chromatin with H3CT antibody); assay type: cell-based; settings: RANKL-induced primary mouse OCP cells; shRNA transduction or 10 nM MMP-9-INI or 1.6 μM C646 for 3 days prior to differentiation; versus control shRNA or DMSO
[3] = biological target: T1, H3NT protease activity (MMP-9) of purified fractions #3-5 from 3-day OCP-induced cells (Mus musculus, UniProt P41245); experiment: In vitro H3NT cleavage assay of purified nuclear fractions #3-5 with protease inhibitors (rH3 substrate, Western blot with H3CT antibody); assay type: biochemical; settings: fractions incubated with protease inhibitors, Western blot with H3CT antibody (FIG. 1D, 1E)
T1 construct: both the pro- and active-forms of MMP-9 were detected in the nuclear compartment of 1-day OCP-induced cells; endogenous in cells; host or cells: primary mouse (C57BL/6) bone-marrow-derived OCP cells induced with RANKL; nuclear extracts / lysates
Source text: as §1, §2

[4] = system: Nfatc1, Lif and Xpr1 expression; experiment: RT-qPCR of osteoclastogenic genes Nfatc1, Lif and Xpr1 in 3-day OCP cells; assay type: cell-based, mouse; settings: 3-day OCP-induced cells, with RANKL (FIG. 7B, 14)
Source text: FIGS. 7A-7D. […] Distribution of H3NT-cleaved genes dependent on MMP-9 for activation (light) or repression (black) in 3-day OCP-induced cells (right). […] Enrichments were plotted relative to non-induced control shRNA OCP cells (first column) (y-axis). Star indicates H3NT cleavage.
FIG. 14. […] RT-qPCR was used to quantitatively measure fold expression changes (y-axis) of the osteoclastogenic genes Nfatc1, Lif and Xpr1 relative to non-induced control after normalization to β-actin expression.
To broadly examine the association between H3NT cleavage and gene expression, the RNA-Seq data was analyzed for the 1,233 H3NT-cleaved genes identified in control and MMP-9 depleted 3-day OCP-induced cells. […] To further investigate the MMP-9-dependent activation of these genes during osteoclastogenesis, RT-qPCR was performed in OCP cells transduced with a control or MMP-9-specific shRNA, or treated with DMSO control or a selective MMP-9 inhibitor, and cultured with or without RANKL for 3 days. […]
qPCR was performed using PerfeCta® SYBR Green FastMix (Quanta BIOSCIENCES) and an iCycler IQ5 (Bio-Rad). […] Specificity of amplification was determined by melting curve analysis and all samples were run in triplicate with results averaged.

T1 sequence (P41245 108-730): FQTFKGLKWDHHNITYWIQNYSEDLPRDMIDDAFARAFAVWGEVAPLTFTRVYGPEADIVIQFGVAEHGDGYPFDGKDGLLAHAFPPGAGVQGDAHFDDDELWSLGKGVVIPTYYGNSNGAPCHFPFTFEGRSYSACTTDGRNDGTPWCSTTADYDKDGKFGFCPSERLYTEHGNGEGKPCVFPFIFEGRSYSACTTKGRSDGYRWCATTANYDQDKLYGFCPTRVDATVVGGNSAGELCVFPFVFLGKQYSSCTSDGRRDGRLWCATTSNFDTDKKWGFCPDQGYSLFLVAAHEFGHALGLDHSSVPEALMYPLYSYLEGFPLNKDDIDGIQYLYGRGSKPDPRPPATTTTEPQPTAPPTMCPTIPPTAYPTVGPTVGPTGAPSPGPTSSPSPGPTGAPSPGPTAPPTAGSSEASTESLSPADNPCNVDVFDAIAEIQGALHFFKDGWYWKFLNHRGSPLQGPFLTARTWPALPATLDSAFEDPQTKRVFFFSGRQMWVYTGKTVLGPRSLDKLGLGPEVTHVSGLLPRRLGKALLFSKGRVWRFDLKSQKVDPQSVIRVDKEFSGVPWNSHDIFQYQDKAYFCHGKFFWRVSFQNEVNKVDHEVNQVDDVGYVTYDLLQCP

H3NT protease activity of purified fractions #3-5 [3] | Compound | H3NT protease activity of recombinant proteases [1] | H3NT proteolysis / cleavage in OCP-induced cells [2] | Nfatc1, Lif and Xpr1 activation (fold expression, normalized to β-actin) [4]
 | rMMP-9: His-tagged recombinant MMP-9 (aa1115-730 as printed) purified from E. coli inclusion bodies and refolded | possessed H3NT protease activity |  | 
 | CC1=NN(c2ccc(C(=O)O)cc2)C(=O)/C1=C\c1ccc(-c2cc(C)c(C)cc2[N+](=O)[O-])o1 [selective CBP/p300 inhibitor, C646] |  | sustained impairment of H3NT proteolysis | 
abolished H3NT proteolysis | CCN(CC)Cc1cc(C)c(N(Cc2ccccc2)S(=O)(=O)c2ccc(OC)cc2)c(C(=O)NO)c1 [selective MMP-9 inhibitor] |  | continuous impairment of H3NT cleavage; also recorded: Ablation of H3NT cleavage | significantly impaired Nfatc1, Lif and Xpr1 activation
